Drawing on patent US9789181B2, “PAN-DR binding polypeptides and uses thereof” (Epimmune Inc., priority 2009, dated 2017), this text covers IC50 for 13 sequences.

One may read the pIC50 as −log10 of the IC50, conventionally taken in molar units.

pIC50: −log10 of the molar value. Where no end group is shown, it is not given here.

The target in test [1] is purified HLA DRB1 *0101 (Homo sapiens, UniProt P01903+P01911, A100R/D57E/F55L/F60I/F76Y/I96L/L162R/M171V/P40L/Q125E/R42F/V115G/Y59C). The test is described as follows: IC50nM to purified HLA | DRB1 *0101. The procedure:
(§1) Table printed on a drawing sheet, FIG. 1
Head of the field: IC50nM to purified HLA | DRB1 *0101
(§2) First copying reader's note: The comma is the decimal sign and the point a thousands separator (e.g. 21.831); some values are printed bold or italic and some SEQ ID NOs underlined, with no legend on the sheet.
Where the first naming reader finds the target: head: IC50nM to purified HLA | DRB1 *0101

Test [2] concerns the target purified HLA DRB1 *0401 (Homo sapiens, UniProt P01903+P01911, A100K/A169T/F76Y/I96L/K127E/L162R/M171V/N62H/P40V/Q125Y/R42H/S133A/S149N/S66Y/V115G/V209L/W38E). Kind of test: IC50nM to purified HLA | DRB1 *0401. The method, then: as §1
Head of the field: IC50nM to purified HLA | DRB1 *0401
as §2
Where the first naming reader finds the target: head: IC50nM to purified HLA | DRB1 *0401

The target of test [3] is purified HLA DRB1 *0404 (Homo sapiens, UniProt P01903+P01911, A100R/A169T/F76Y/I96L/K127E/L162R/M171V/N62H/P40V/Q125Y/R42H/S133A/S149N/S66Y/V209L/W38E). Kind of test: IC50nM to purified HLA | DRB1 *0404. The method, then:
as §1
Head of the field: IC50nM to purified HLA | DRB1 *0404
as §2
Where the first naming reader finds the target: head: IC50nM to purified HLA | DRB1 *0404

Test [4] has as its target purified HLA DRB1 *0405 (Homo sapiens, UniProt P01903+P01911, A100R/A169T/D86S/F76Y/I96L/K127E/L162R/M171V/N62H/P40V/Q125Y/R42H/S133A/S149N/S66Y/V115G/V209L/W38E). Kind of test: IC50nM to purified HLA | DRB1 *0405. The method, then: as §1
Head of the field: IC50nM to purified HLA | DRB1 *0405
as §2
Where the first naming reader finds the target: head: IC50nM to purified HLA | DRB1 *0405

In test [5] the target is purified HLA DRB1 *0802 (Homo sapiens, UniProt P01903+P01911, A100R/A103L/A169T/F76Y/H45Y/I96F/K41T/L162R/M171V/P40S/Q125H/Q178H/Q39Y/Q99D/R218S/R42G/S66Y/V115G/W38E). Kind of test: IC50nM to purified HLA | DRB1 *0802. The procedure: as §1
Head of the field: IC50nM to purified HLA | DRB1 *0802
as §2
Where the first naming reader finds the target: head: IC50nM to purified HLA | DRB1 *0802

For test [6], the target named is purified HLA DRB1 *1101 (Homo sapiens, UniProt P01903+P01911, A100R/A169T/A87E/I96F/K41T/L162R/M171V/P40S/Q125H/Q178H/Q39Y/Q99D/R42S/S66Y/T262R/V115G/W38E). Kind of test: IC50nM to purified HLA | DRB1 *1101. The procedure:
as §1
Head of the field: IC50nM to purified HLA | DRB1 *1101
as §2
Where the first naming reader finds the target: head: IC50nM to purified HLA | DRB1 *1101

The target in test [7] is purified HLA DRB1 *1302 (Homo sapiens, UniProt P01903+P01911, A100E/A169T/K41T/L162R/M171V/P40S/Q125H/Q178H/Q39Y/Q99D/R42S/S66N/T262R/V115G/W38E/Y61H). Kind of test: IC50nM to purified HLA | DRB1 *1302. The procedure:
as §1
Head of the field: IC50nM to purified HLA | DRB1 *1302
as §2
Where the first naming reader finds the target: head: IC50nM to purified HLA | DRB1 *1302

Test [8] concerns the target purified HLA DRB4 *0101 (Homo sapiens, UniProt P01903+P13762, G164S). Kind of test: IC50nM to purified HLA | DRB4 *0101. The method, then: as §1
Head of the field: IC50nM to purified HLA | DRB4 *0101
as §2
Where the first naming reader finds the target: head: IC50nM to purified HLA | DRB4 *0101

The target of test [9] is purified HLA DRB5 *0101 (Homo sapiens, UniProt P01903+Q30154). Kind of test: IC50nM to purified HLA | DRB5 *0101. The procedure: as §1
Head of the field: IC50nM to purified HLA | DRB5 *0101
as §2
Where the first naming reader finds the target: head: IC50nM to purified HLA | DRB5 *0101

Test [10] has as its target purified HLA DRB1 *0701 (Homo sapiens, UniProt P01903+P01911, A100R/A102G/A103Q/D57E/D86V/E43K/F76Y/K127E/L162R/M171V/P40G/Q125H/Q99D/R33Q/R42Y/R54Q/S133A/S66F/T210M/V115G/Y107V/Y59L/Y89S). Kind of test: IC50nM to purified HLA | DRB1 *0701. The method, then: as §1
Head of the field: IC50nM to purified HLA | DRB1 *0701
as §2
Where the first naming reader finds the target: head: IC50nM to purified HLA | DRB1 *0701

Test [11] has as its target purified HLA DRB1 *0901 (Homo sapiens, UniProt P01903+P01911, A100R/A103E/D57H/D86V/F55Y/F60I/F76Y/I96F/K127E/L162R/M171V/P40D/Q125H/Q99R/R33Q/R42F/S133A/S66N/T210M/V115G/W38K/Y107V/Y59G/Y89S). Kind of test: IC50nM to purified HLA | DRB1 *0901. The procedure: as §1
Head of the field: IC50nM to purified HLA | DRB1 *0901
as §2
Where the first naming reader finds the target: head: IC50nM to purified HLA | DRB1 *0901

In test [12] the target is purified HLA DRB1 *0301 (Homo sapiens, UniProt P01903+P01911, A100K/A102G/A103R/A169T/F55Y/I96L/K41T/L162R/M171V/P40S/Q125H/Q178H/Q39Y/R42S/S66N/T106N/T262R/W38E/Y61H). The test is described as follows: IC50nM to purified HLA | DRB1 *0301. The procedure:
as §1
Head of the field: IC50nM to purified HLA | DRB1 *0301
as §2
Where the first naming reader finds the target: head: IC50nM to purified HLA | DRB1 *0301

Test [13] has as its target purified HLA DRB1 *1501 (Homo sapiens, UniProt P01903+P01911). The test is described as follows: IC50nM to purified HLA | DRB1 *1501. The method, then: as §1
Head of the field: IC50nM to purified HLA | DRB1 *1501
as §2
Where the first naming reader finds the target: head: IC50nM to purified HLA | DRB1 *1501

purified HLA DRB4 *0101, sequence (P01903 26-254 limits assumed): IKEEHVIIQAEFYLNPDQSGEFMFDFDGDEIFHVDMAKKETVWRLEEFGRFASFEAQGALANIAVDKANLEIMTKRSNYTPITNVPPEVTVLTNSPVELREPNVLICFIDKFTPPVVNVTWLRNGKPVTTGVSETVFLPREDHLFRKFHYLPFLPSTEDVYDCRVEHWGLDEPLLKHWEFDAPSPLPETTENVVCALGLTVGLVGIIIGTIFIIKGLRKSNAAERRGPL
purified HLA DRB4 *0101, sequence (P13762 whole entry G164S): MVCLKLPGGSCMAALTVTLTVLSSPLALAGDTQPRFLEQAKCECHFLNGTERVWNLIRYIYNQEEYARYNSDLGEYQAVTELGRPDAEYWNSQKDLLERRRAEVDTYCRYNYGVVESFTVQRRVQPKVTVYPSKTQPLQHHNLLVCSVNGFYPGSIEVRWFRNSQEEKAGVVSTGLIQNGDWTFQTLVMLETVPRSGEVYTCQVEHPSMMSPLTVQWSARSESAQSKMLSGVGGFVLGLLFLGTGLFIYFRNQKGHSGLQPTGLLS
purified HLA DRB1 *0301, sequence (P01903 26-254 limits assumed, other chains not shown): as the sequence (P01903 26-254 limits assumed) above
purified HLA DRB1 *1101, sequence (P01903 26-254 limits assumed, other chains not shown): as the sequence (P01903 26-254 limits assumed) above
purified HLA DRB1 *1302, sequence (P01903 26-254 limits assumed, other chains not shown): as the sequence (P01903 26-254 limits assumed) above

AAAYFVAAWTLKAAA [SEQ ID NO: 20]: the pIC50 in [1] is 8.57; in [2], 8.80; in [3], 8.85; in [4], 8.18; in test [5] it was 8.21; in test [6], 7.96. Moreover, the negative-log IC50 (pIC50) in [7] was 6.04; in test [8] it was 6.54; in test [9], 8.23.
Regarding AAAKFVAAWTLHAAA [SEQ ID NO: 6], the pIC50 in test [1] is 8.41; in test [2], 8.47; in test [3], 8.62; in test [10], 7.46; in [5], 8.12; in test [11] it was 7.62. For the same sequence, the pIC50 in test [7] was 6.18; in [8], 6.68; in test [9], 7.66.
AAAHFVAAWTLKAAA [SEQ ID NO: 25]: the pIC50 in test [1] was 8.33; in test [12] it was 6.58; in test [2] it was 8.51; in [3], 8.32; in test [10], 6.96; in [11] it was 7.35. Besides, the pIC50 in test [7] is 5.82; in test [13] it was 7.70; in test [8] it was 6.42; in test [9] it was 7.96.
For AAAWFVAAWTLHAAA [SEQ ID NO: 7], the negative-log IC50 (pIC50) in test [1] is 8.37; in test [12], 6.95; in [3], 8.70; in test [10], 7.08; in test [11], 7.48; in test [6], 7.49. The figures for the pIC50 in test [7], in test [13] and in test [8] were 5.37, 7.44 and 6.35, respectively.
AAAFFVAAFTLHAAA [SEQ ID NO: 14]: the pIC50 in test [12] is 6.43; in [2], 8.70; in [3], 8.96; in test [10], 6.21; in test [11] it was 7.32; in test [7], 3.66. For the same sequence, the pIC50 was 7.60 in test [13], 6.89 in test [8] and 7.54 in test [9].
Consider AAAFFVAANTLHAAA [SEQ ID NO: 15], for which the negative-log IC50 (pIC50) in [1] was 8.19; in test [2], 8.42; in test [3] it was 8.39; in test [4], 7.57; in test [11], 7.51; in [6], 7.38. Moreover, the figures for the pIC50 in test [7], in test [13] and in test [8] were 7.19, 7.15 and 6.06, respectively.
As to AAAFFVAAYTLKADA [SEQ ID NO: 17], the pIC50 was 8.42 in [1]; 8.30 in test [2]; 8.22 in test [3]; 7.48 in [4]; 7.35 in [10]; 8.17 in test [5]. Moreover, the pIC50 is 7.26 in test [6], 6.07 in test [7], 7.60 in test [13] and 8.14 in test [9].
Take AAAWFVAANTLHAAA [SEQ ID NO: 10]: the pIC50 in [1] was 8.42; in test [12] it was 6.76; in test [2] it was 8.54; in [10], 7.37; in [5], 8.07; in [11], 7.48. The pIC50 was 7.42 in test [7], 7.00 in test [13], 6.22 in test [8] and 7.66 in [9].
Take AAAFFVAANTLKADA [SEQ ID NO: 19]: the pIC50 in test [1] was 8.47; in test [12], 6.85; in [2] it was 8.40; in [3], 8.35; in [4], 8.02; in test [6], 7.34. Moreover, the pIC50 in test [7] was 6.73; in [13], 6.99; in test [8], 5.26; in [9], 8.36.
As to AAAWFVAAYTLHAAA [SEQ ID NO: 8], the pIC50 in test [1] is 8.41; in test [12] it was 6.80; in [2] it was 8.42; in test [3], 8.49; in test [4], 7.62; in [10], 7.04. For the same sequence, the pIC50 in test [11] is 7.72; in [7] it was 5.51; in test [13] it was 8.21; in test [8], 6.34; in [9], 7.60.
As to AAAKFVAAWTLKAAA [SEQ ID NO: 4], the pIC50 was 8.48 in test [1]; 6.68 in test [12]; 8.54 in test [3]; 7.60 in test [4]; 7.31 in [10]; 8.28 in test [5]. Also, the pIC50 in test [6] is 7.96; in test [7], 6.19; in test [13] it was 8.01; in test [8], 6.68; in [9] it was 8.27.
AAAYFVAAYTLHAAA [SEQ ID NO: 22]: the pIC50 in test [12] was 7.11; in test [2] it was 8.64; in test [3], 8.72; in test [4], 8.14; in [10], 7.19; in test [5], 8.28. The pIC50 in test [11] is 7.96; in [7] it was 6.08; in [13], 8.40; in test [8], 6.35.
Consider AAAWFVAAWTLKAAA [SEQ ID NO: 5], for which the pIC50 in test [12] was 6.79; in test [2], 8.51; in [3] it was 8.42; in test [5], 8.07; in test [11] it was 7.46; in [7] it was 5.53. Also, the pIC50 in [13] is 7.51; in test [8] it was 6.25; in test [9], 8.03.
